Measurements reported in patent US9840478B2 (MERCK SHARP & DOHME CORP., priority 2013, dated 2017).

Each compound was assayed on HIV-1 (H9IIIB strain) (assay: Cell-based HIV infection assay using a reporter (Cell-Based), MT4-GFP cells). Conditions: Human immunodeficiency virus 1, MT4-GFP cells infected with HIV-1 H9IIIB; 50% normal human serum; mean of at least two independent experiments; read-out: Cell-based IP.
How it was run: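 MT4-GFP cells (HIV LTR-driven GFP) infected 24 h with HIV-1 H9IIIB at low MOI, then washed and plated with compounds in RPMI + 50% normal human serum, 0.4% DMSO final. Green cells counted at 24 and 48 h; R0 = 48 h/24 h ratio, inhibition normalized to DMSO and triple-drug control; IC50 from 4-parameter fit.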

**Q.** For `O=C(CC(c1ccc(F)cc1)c1ccc(F)cc1)Nc1cccc(F)c1CC[C@@H]1CNCCN1S(=O)(=O)c1ccccc1` [Example 61, 3,3-bis(4-fluorophenyl)-N-(3-fluoro-2-{2-[(2R)-1-(phenylsulfonyl)piperazin-2-yl]ethyl}phenyl)propanamide], which IC50 is on record?
**A.** 1.2 µM

**Q.** With `O=C(CC1(c2ccc(Cl)cc2)CCOCC1)Nc1cncc(F)c1CC[C@H]1CNCCN1S(=O)(=O)C1CC1` [Example 62, 2-[4-(4-chlorophenyl)tetrahydro-2H-pyran-4-yl]-N-(4-{2-[(2S)-1-(cyclopropylsulfonyl)piperazin-2-yl]ethyl}-5-fluoropyridin-3-yl)acetamide] as the compound, how does the IC50 read?
**A.** 0.52 µM

**Q.** Which IC50 does the source give for `CS(=O)(=O)N1CCNC[C@@H]1CCc1c(F)cccc1NC(=O)[C@@H](N)[C@@H](c1ccc(Cl)cc1)C1CCOCC1` [Example 65, (βR)-4-chloro-N-(3-fluoro-2-{2-[(2S)-1-(methylsulfonyl)piperazin-2-yl]ethyl}phenyl)-β-(tetrahydro-2H-pyran-4-yl)-L-phenylalaninamide] here?
**A.** 0.12 µM

**Q.** `COC(=O)N[C@H](C(=O)Nc1cccc(F)c1CC[C@H]1CNCCN1S(=O)(=O)c1ccccc1)[C@@H](c1ccc(Cl)cc1)c1cncc(C(F)(F)F)c1` [Example 66, (βS)-4-chloro-N-(3-fluoro-2-{2-[(2S)-1-(phenylsulfonyl)piperazin-2-yl]ethyl}phenyl)-Nα-(methoxycarbonyl)-β-[5-(trifluoromethyl)pyridin-3-yl]-L-phenylalaninamide] was tested. Which IC50 did it give?
**A.** 0.012 µM

**Q.** For `COc1ccc([C@H](c2ccc(Cl)cc2)[C@H](N)C(=O)Nc2cccc(F)c2CC[C@H]2CNCCN2S(=O)(=O)c2ccccc2)cn1` [Example 67, (βS)-4-chloro-N-(3-fluoro-2-{2-[(2S)-1-(phenylsulfonyl)piperazin-2-yl]ethyl}phenyl)-β-(6-methoxypridin-3-yl)-L-phenylalaninamide], which IC50 is on record?
**A.** 0.0058 µM

**Q.** How did the IC50 turn out when `CN(CC(F)(F)F)S(=O)(=O)N1CCNC[C@@H]1CCc1c(F)cccc1NC(=O)[C@@H](N)C(c1ccc(F)cc1)c1ccc(F)cc1` [Example 68, 4-fluoro-N-[3-fluoro-2-(2-{(2S)-1-[methyl(2,2,2-trifluoroethyl)sulfamoyl]piperazin-2-yl}ethyl)phenyl]-β-(4-fluorophenyl)-L-phenylalaninamide] was run?
**A.** 1.8 µM

**Q.** `N[C@H](C(=O)Nc1cncc(F)c1CC[C@H]1CNCCN1S(=O)(=O)c1ccccc1)C1(c2ccc(Cl)cc2)CCOCC1` [Example 70, (2S)-2-amino-2-[4-(4-chlorophenyl)tetrahydro-2H-pyran-4-yl]-N-(5-fluoro-4-{2-[(2S)-1-(phenylsulfonyl)piperazin-2-yl]ethyl}pyridin-3-yl)ethanamide] was tested. Which IC50 did it give?
**A.** 0.027 µM

**Q.** Which IC50 does the source give for `COC(=O)N[C@H](C(=O)Nc1cncc(F)c1CC[C@H]1CNCCN1S(=O)(=O)c1ccccc1)C1(c2ccc(Cl)cc2)CCOCC1` [Example 71, methyl {(1S)-1-[4-(4-chlorophenyl)tetrahydro-2H-pyran-4-yl]-2-[(5-fluoro-4-{2-[(2S)-1-(phenylsulfonyl)piperazin-2-yl]ethyl}pyridin-3-yl)amino]-2-oxoethyl} carbamate] here?
**A.** 0.011 µM

**Q.** With `N[C@H](C(=O)Nc1cccc(F)c1CC[C@H]1CNCCN1S(=O)(=O)c1ccccc1)[C@H](CCC1CCOCC1)c1ccc(Cl)c(F)c1` [Example 72, (βR)-4-chloro-3-fluoro-N-(3-fluoro-2-{2-[(2S)-1-(phenylsulfonyl)piperazin-2-yl]ethyl}phenyl)-β-[2-(tetrahydro-2H-pyran-4-yl)ethyl]-L-phenylalaninamide] as the compound, how does the IC50 read?
**A.** 0.021 µM

**Q.** Which IC50 does the source give for `COC(=O)N[C@H](C(=O)Nc1cccc(F)c1CC[C@H]1CNCCN1S(=O)(=O)c1ccccc1)[C@H](CCC1CCOCC1)c1ccc(Cl)c(F)c1` [Example 73, (βR)-4-chloro-3-fluoro-N-(3-fluoro-2-{2-[(2S)-1-(phenylsulfonyl)piperazin-2-yl]ethyl}phenyl)-Nα-(methoxycarbonyl)-β-[2-(tetrahydro-2H-pyran-4-yl)ethyl]-L-phenylalaninamide] here?
**A.** 0.0076 µM

**Q.** `CC1(C)CC([C@H](c2ccc(Cl)cc2)[C@H](N)C(=O)Nc2cccc(F)c2CC[C@H]2CNCCN2S(=O)(=O)c2ccccc2)CCO1` (stereo partly drawn) [Example 74, (βR)-4-chloro-β-(2,2-dimethyltetrahydro-2H-pyran-4-yl)-N-(3-fluoro-2-{2-[(2S)-1-(phenylsulfonyl)piperazin-2-yl]ethyl}phenyl)-L-phenylalaninamide] was tested. Which IC50 did it give?
**A.** 0.024 µM

**Q.** Which IC50 does the source give for `CC1(C)CC([C@H](c2ccc(Cl)cc2)[C@H](N)C(=O)Nc2cccc(F)c2CC[C@H]2CNCCN2S(=O)(=O)c2ccccc2)CC(C)(C)O1` [Example 75, (βR)-4-chloro-N-(3-fluoro-2-{2-[(2S)-1-(phenylsulfonyl)piperazin-2-yl]ethyl}phenyl)-β-(2,2,6,6-tetramethyltetrahydro-2H-pyran-4-yl)-L-phenylalaninamide] here?
**A.** 0.15 µM

**Q.** Which IC50 does the source give for `COC(=O)N[C@H](C(=O)Nc1cccc(F)c1CC[C@H]1CNCCN1S(=O)(=O)c1ccccc1)[C@@H](c1ccc(Cl)cc1)C1CCOC(C)(C)C1` (stereo partly drawn) [Example 76, (βR)-4-chloro-β-(2,2-dimethyltetrahydro-2H-pyran-4-yl)-N-(3-fluoro-2-{2-[(2S)-1-(phenylsulfonyl)piperazin-2-yl]ethyl}phenyl)-Nα-(methoxycarbonyl)-L-phenylalaninamide] here?
**A.** 0.0094 µM

**Q.** How did the IC50 turn out when `COC(=O)N[C@H](C(=O)Nc1cccc(F)c1CC[C@H]1CNCCN1S(=O)(=O)c1ccccc1)[C@@H](c1ccc(Cl)cc1)C1CC(C)(C)OC(C)(C)C1` [Example 77, (βR)-4-chloro-N-(3-fluoro-2-{2-[(2S)-1-(phenylsulfonyl)piperazin-2-yl]ethyl}phenyl)-Nα-(methoxycarbonyl)-β-(2,2,6,6-tetramethyltetrahydro-2H-pyran-4-yl)-L-phenylalaninamide] was run?
**A.** 0.018 µM

**Q.** Which IC50 does the source give for `CC1(C)CC([C@H](c2ccc(Cl)cc2)[C@H](N)C(=O)Nc2cccc(F)c2CC[C@H]2CNCCN2S(C)(=O)=O)CCO1` (stereo partly drawn) [Example 78, (βR)-4-chloro-β-(2,2-dimethyltetrahydro-2H-pyran-4-yl)-N-(3-fluoro-2-{2-[(2S)-1-(methylsulfonyl)piperazin-2-yl]ethyl}phenyl)-L-phenylalaninamide] here?
**A.** 0.11 µM

**Q.** Which IC50 does the source give for `COC(=O)N[C@H](C(=O)Nc1cccc(F)c1CC[C@H]1CNCCN1S(C)(=O)=O)[C@@H](c1ccc(Cl)cc1)C1CCOC(C)(C)C1` (stereo partly drawn) [Example 79, (βR)-4-chloro-β-(2,2-dimethyltetrahydro-2H-pyran-4-yl)-N-(3-fluoro-2-{2-[(2S)-1-(methylsulfonyl)piperazin-2-yl]ethyl}phenyl)-Nα-(methoxycarbonyl)-L-phenylalaninamide] here?
**A.** 0.03 µM

**Q.** `CC(=O)N[C@H](C(=O)Nc1cncc(F)c1CC[C@H]1CNCCN1S(=O)(=O)C1CC1)[C@@H](c1ccc(F)cc1)c1cc(F)cc(F)c1` [Example 80, (βS)-Nα-acetyl-N-(4-{2-[(2S)-1-(cyclopropylsulfonyl)piperazin-2-yl]ethyl}-5-fluoropyridin-3-yl)-3,5-difluoro-β-(4-fluorophenyl)-L-phenylalaninamide] was tested. Which IC50 did it give?
**A.** 0.066 µM

**Q.** How did the IC50 turn out when `O=C(N[C@H](C(=O)Nc1cncc(F)c1CC[C@H]1CNCCN1S(=O)(=O)C1CC1)[C@@H](c1ccc(F)cc1)c1cc(F)cc(F)c1)C1CC1` [Example 81] was run?
**A.** 0.025 µM

**Q.** For `O=C(CC1CC1)N[C@H](C(=O)Nc1cncc(F)c1CC[C@H]1CNCCN1S(=O)(=O)C1CC1)[C@@H](c1ccc(F)cc1)c1cc(F)cc(F)c1` [Example 82, (βS)-Nα-(cyclopropylacetyl)-N-(4-{2-[(2S)-1-(cyclopropylsulfonyl)piperazin-2-yl]ethyl}-5-fluoropyridin-3-yl)-3,5-difluoro-β-(4-fluorophenyl)-L-phenylalaninamide], which IC50 is on record?
**A.** 0.034 µM

**Q.** Which IC50 does the source give for `N[C@H](C(=O)Nc1cncc(F)c1CC[C@H]1CNCCN1S(=O)(=O)N1CCCC1)[C@@H](c1ccc(F)cc1)c1cc(F)cc(F)c1` [Example 83, (βS)-3,5-difluoro-β-(4-fluorophenyl)-N-(5-fluoro-4-{2-[(2S)-1-(pyrrolidin-1-ylsulfonyl)piperazin-2-yl]ethyl}pyridin-3-yl)-L-phenylalaninamide] here?
**A.** 0.0089 µM

**Q.** Which IC50 does the source give for `COC(=O)N[C@H](C(=O)Nc1cncc(F)c1CC[C@H]1CNCCN1S(=O)(=O)N1CCCC1)[C@@H](c1ccc(F)cc1)c1cc(F)cc(F)c1` [Example 84, (βS)-3,5-difluoro-β-(4-fluorophenyl)-N-(5-fluoro-4-{2-[(2S)-1-(pyrroldin-1-ylsulfonyl)piperazin-2-yl]ethyl}pyridin-3-yl)-Nα-(methoxycarbonyl)-L-phenylalaninamide] here?
**A.** 0.0084 µM

**Q.** `CC(=O)N[C@H](C(=O)Nc1cncc(F)c1CC[C@H]1CNCCN1S(=O)(=O)N1CCCC1)[C@@H](c1ccc(F)cc1)c1cc(F)cc(F)c1` [Example 85, (βS)-Nα-acetyl-3,5-difluoro-β-(4-fluorophenyl)-N-(5-fluoro-4-{2-[(2S)-1-(pyrrolidin-1-ylsulfonyl)piperazin-2-yl]ethyl}pyridin-3-yl)-L-phenylalaninamide] was tested. Which IC50 did it give?
**A.** 0.021 µM

**Q.** `O=C(N[C@H](C(=O)Nc1cncc(F)c1CC[C@H]1CNCCN1S(=O)(=O)N1CCCC1)[C@@H](c1ccc(F)cc1)c1cc(F)cc(F)c1)C1CC1` [Example 86] was tested. Which IC50 did it give?
**A.** 0.013 µM

**Q.** How did the IC50 turn out when `O=C(CC1CC1)N[C@H](C(=O)Nc1cncc(F)c1CC[C@H]1CNCCN1S(=O)(=O)N1CCCC1)[C@@H](c1ccc(F)cc1)c1cc(F)cc(F)c1` [Example 87] was run?
**A.** 0.016 µM

**Q.** `C[C@@H]1CN(S(=O)(=O)c2ccccc2)[C@@H](CCc2c(F)cccc2NC(=O)CC(c2ccc(F)cc2)c2ccc(F)cc2)CN1` [Example 88, N-(3-fluoro-2-{2-[(2S,5R)-5-methyl-1-(phenylsulfonyl)piperazin-2-yl]ethyl}phenyl)-3,3-bis(4-fluorophenyl) propanamide] was tested. Which IC50 did it give?
**A.** 0.52 µM

Same assay, conditions: MT4-GFP cells infected with HIV-1 H9IIIB; 50% normal human serum; mean of at least two independent experiments; read-out: Cell-based IP

**Q.** How did the IC50 turn out when `CN(CC1CC1)S(=O)(=O)N1CCNC[C@@H]1CCc1c(F)cccc1NC(=O)[C@@H](N)C(c1ccc(F)cc1)c1ccc(F)cc1` [Example 69] was run?
**A.** 0.36 µM
